49 compounds from US8962244B2, “Compounds for modulating RNA binding proteins and uses therefor” (University of Massachusetts, priority 2009, dated 2015) can be followed below.

The target in the first experiment is T1, POS-1 (Caenorhabditis elegans, UniProt G5EF15).
T1 construct: 6-his tag (N); made in house; host or cells: E. coli BL21 (DE3) Gold
T1 sequence (G5EF15 80-180): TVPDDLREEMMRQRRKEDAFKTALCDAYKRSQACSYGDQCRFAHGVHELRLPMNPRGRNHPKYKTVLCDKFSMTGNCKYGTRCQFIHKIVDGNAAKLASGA
In words: Fluorescence polarization screening of POS-1 binding to fluorescein-labeled BMF018 RNA. The settings on record: 192 μM test compound; score = polarization relative to no-drug and no-protein controls; 0.25 = 75% inhibition; lowest score = greatest inhibition; read-out: POS-1 score. (In general: In fluorescence polarisation assays a small probe gives low polarisation when free and higher when bound to something large.)
As for `O=C(Nc1nnc[nH]1)c1ccccc1O` [AI], the remaining activity at 192 µM was 2.5%.

Turning to `O=c1cc(-c2ccccc2)c2ccc(O)c(O)c2o1` [I], the remaining activity at 192 µM was 0.543%.

With `O=C(O)c1cc(NC(=O)c2cccc(N3C(=O)CCC3=O)c2)cc(C(=O)O)c1` [AH], the remaining activity at 192 µM was 14.6%.

Take `O=C(O)c1ccc(NC(=S)NC(=O)c2sc3ccccc3c2Cl)cc1` [CY]: the remaining activity at 192 µM was 4.35%.

As to `O=C(O)c1ccccc1NC(=S)NC(=O)c1sc2ccccc2c1Cl` [BP], the remaining activity at 192 µM came out at 4.54%.

As for `COc1ccc(S(=O)(=O)Nc2ccc(C)cc2NS(=O)(=O)c2ccc(OC)cc2)cc1` [DI], the remaining activity at 192 µM is 11.9%.

As to `CCCCOc1cccc(C(=O)Nc2ccc(S(=O)(=O)Nc3nnc(CC)s3)cc2)c1` [EP], the remaining activity at 192 µM was 26%.

`CCOC(=O)c1ccccc1OC(=O)c1ccc2c(c1)C1C=CCC1C(C(=O)O)N2` (stereo not drawn) [B]: the remaining activity at 192 µM amounted to 5.51%.

Regarding `CC(=O)Nc1nc2ccc(S(=O)(=O)NC(C)=O)cc2s1` [ED], the remaining activity at 192 µM amounted to 22%.

Take `O=C(NC(=S)Nc1ccc(C(=O)O)c(Cl)c1)c1ccc(Cl)c(Cl)c1` [DZ]: the remaining activity at 192 µM was found to be 20.1%.

For the compound `Cc1ccc(C)c(OCC(=O)Nc2ccc(S(=O)(=O)Nc3nccs3)cc2)c1C` [DW], the remaining activity at 192 µM is 19%.

In the case of `CC(C)(C)c1ccc(C(=O)Nc2ccc(S(=O)(=O)Nc3nccs3)cc2)cc1Br` [EV], the remaining activity at 192 µM was determined as 27.5%.

Take `CCOC(=O)c1ccc(N2NC(=O)/C(=C/c3ccc(OC(=O)c4ccco4)c(OC)c3)C2=O)cc1` [DR]: the remaining activity at 192 µM was 17.2%.

For `COc1cc(/C=C2/C(=O)N(c3ccc(Cl)c(C(=O)O)c3)N=C2C)ccc1OC(=O)c1cccs1` [DF], the remaining activity at 192 µM is 10.1%.

On to `CCOC(=O)c1ccc(N2NC(=O)/C(=C/c3ccc(OC(=O)c4cccs4)c(OC)c3)C2=O)cc1` [EW], for which the remaining activity at 192 µM amounted to 27.5%.

For the compound `CCCCC(=O)NC(c1ccccc1Cl)c1cc([N+](=O)[O-])c2cccnc2c1O` (stereo not drawn) [ET], the remaining activity at 192 µM is 26.5%.

Consider `Cc1ccc(NS(=O)(=O)c2ccc(F)cc2)c(NS(=O)(=O)c2ccc(F)cc2)c1` [DS], for which the remaining activity at 192 µM was determined as 17.7%.

As for `Cc1cc(OCC(=O)Nc2ccc(S(=O)(=O)Nc3nccs3)cc2)ccc1Br` [DT], the remaining activity at 192 µM was found to be 17.7%.

As for `O=C(NC1CCCCCC1)c1ccc(I)cc1` [CW], the remaining activity at 192 µM was determined as 3.98%.

As for `Oc1ccccc1-c1n[nH]c(=S)n1Cc1ccccc1` [ES], the remaining activity at 192 µM was 26.5%.

Take `C#CCSc1nc2sc3c(c2c(=O)n1C)CCC3` [EB]: the remaining activity at 192 µM is 21%.

Turning to `O=C(NC(=S)Nc1ccccc1C(=O)O)c1ccc(-c2ccc(Cl)cc2)o1` [EO], the remaining activity at 192 µM was 25.4%.

With `CCCC(=O)NC(c1ccc(Cl)cc1)c1cc([N+](=O)[O-])c2cccnc2c1O` (stereo not drawn) [EU], the remaining activity at 192 µM was found to be 26.6%.

For `O=C1NN(c2ccc(Cl)c(Cl)c2)C(=O)/C1=C/c1cccc(OC(=O)c2cccs2)c1` [EG], the remaining activity at 192 µM came to 22.9%.

As for `Cc1ccc2c(Cl)c(C(=O)Nc3nnn[nH]3)sc2c1` [EL], the remaining activity at 192 µM worked out at 23.8%.

As to `CC1=NN(c2ccc(S(N)(=O)=O)cc2)C(=O)/C1=C\c1ccc(OC(=O)c2cccs2)cc1` [DN], the remaining activity at 192 µM worked out at 16.7%.

On to `O=S(=O)(NCc1nc2ccccc2[nH]1)c1ccc(Cl)cc1` [EC], for which the remaining activity at 192 µM is 21.7%.

Regarding `CCOC(=O)c1c(NC(=O)C2CC=CCC2C(=O)O)sc(C)c1-c1ccc(Cl)cc1` (stereo not drawn) [EA], the remaining activity at 192 µM was 20.3%.

On to `O=S(=O)(Nc1ccc(S(=O)(=O)Nc2nccs2)cc1)c1ccc(Br)cc1` [CZ], for which the remaining activity at 192 µM is 4.89%.

Take `CCOC(=O)C1=C(C)Nc2[nH]c(=O)[nH]c(=O)c2C1c1ccccc1[N+](=O)[O-]` (stereo not drawn) [EF]: the remaining activity at 192 µM is 22.8%.

In the case of `O=C1NN(c2ccc(F)c(Cl)c2)C(=O)/C1=C\c1cccc(OC(=O)c2cccs2)c1` [CX], the remaining activity at 192 µM worked out at 4.3%.

Take `Cc1ccc(S(=O)(=O)NCc2nc3ccccc3[nH]2)cc1` [DY]: the remaining activity at 192 µM was 20%.

Turning to `O=C(NC(=S)Nc1ccccc1C(=O)O)c1cc(I)ccc1Cl` [DV], the remaining activity at 192 µM is 18.5%.

For the compound `COc1cc(/C=C2\C(=O)N(c3cccc(C(=O)O)c3)N=C2C)ccc1OC(=O)c1ccco1` [DX], the remaining activity at 192 µM is 19.7%.

In the case of `CCOC(=O)c1ccc(N2NC(=O)/C(=C/c3cccc(OC(=O)c4cccs4)c3)C2=O)cc1` [DL], the remaining activity at 192 µM was 14.3%.

As to `NC(=O)c1ccccc1NC(=O)CN(c1cccc(Br)c1)S(=O)(=O)c1ccccc1` [DC], the remaining activity at 192 µM is 7.5%.

As to `CCOc1cc(/C=C2\C(=O)N(c3ccc(C(=O)O)cc3)N=C2C)ccc1OC(=O)c1cccs1` [EE], the remaining activity at 192 µM worked out at 22.5%.

Turning to `CCc1nnc(NS(=O)(=O)c2ccc(NCc3cc(Cl)cc(Cl)c3O)cc2)s1` [DH], the remaining activity at 192 µM turned out to be 11.9%.

As to `COC(=O)c1c(NC(=O)CCC(=O)O)sc2c1CCC(C(C)(C)C)C2` (stereo not drawn) [DM], the remaining activity at 192 µM was found to be 14.4%.

Turning to `Cc1c(C(=O)NC(=S)Nc2cc(C(=O)O)ccc2Cl)cccc1[N+](=O)[O-]` [ER], the remaining activity at 192 µM was found to be 26.2%.

Consider `COc1cc(-c2n[nH]c(=S)[nH]2)cc(OC)c1OC` [DU], for which the remaining activity at 192 µM was found to be 18%.

Regarding `O=C(Nc1cc(NC(=O)c2ccccc2)cc(C(=O)Nc2ccc(O)cc2C(=O)O)c1)c1ccccc1` [DQ], the remaining activity at 192 µM came to 17.2%.

For `CCOc1ccc(C(=O)NC(=S)Nc2ccccc2C(=O)O)cc1Br` [DO], the remaining activity at 192 µM was 16.7%.

Take `COc1c(Cl)cc(Cl)cc1C(=O)NC(=S)Nc1ccc(C(=O)O)cc1` [EQ]: the remaining activity at 192 µM was 26%.

For `CC1=NN(c2ccc(Cl)c(C(=O)O)c2)C(=O)/C1=C/c1cccc(OC(=O)c2cccs2)c1` [DB], the remaining activity at 192 µM worked out at 6.9%.

With `Sc1nnc(-c2cc(-c3ccccc3)nc3ccccc23)o1` [EM], the remaining activity at 192 µM was found to be 24.2%.

As for `Cc1cc(NS(=O)(=O)c2ccc(NC(=O)c3ccc(C(C)(C)C)c(Br)c3)cc2)no1` [DP], the remaining activity at 192 µM was 16.8%.

As to `CCOc1ccc(C(=O)NC(=S)Nc2ccc(C(=O)O)c(Cl)c2)cc1Br` [DK], the remaining activity at 192 µM amounted to 14.3%.

In the case of `O=C(O)c1ccc(Cl)c(NC(=S)NC(=O)c2cc(I)ccc2Cl)c1` [EJ], the remaining activity at 192 µM came to 23.4%.

In the next experiment the target is T2, MEX-5 (Caenorhabditis elegans, UniProt Q9XUB2).
T2 construct: The fragment of mex-5 containing the TZF domain (amino acids 236-350) was amplified; made in house; host or cells: Escherichia coli JM109
T2 sequence (Q9XUB2 236-350): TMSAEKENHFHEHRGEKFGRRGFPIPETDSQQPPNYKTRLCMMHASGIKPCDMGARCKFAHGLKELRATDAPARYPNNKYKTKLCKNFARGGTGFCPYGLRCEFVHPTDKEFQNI
Kind of experiment: Fluorescence polarization screening of MEX-5 binding to fluorescein-labeled TCR2 RNA. The following applies: 192 μM test compound; score = polarization relative to no-drug and no-protein controls; 0.25 = 75% inhibition; lowest score = greatest inhibition; read-out: MEX-5 score. The source says: The expression and purification of recombinant MEX-5 protein has previously been described in Pagano, J. M., Farley, B. M., McCoig, L. M. and Ryder, S. P. (2007) “Molecular basis of RNA recognition by the embryonic polarity determinant MEX-5;” J Biol Chem; 282, 8883-8894. The fragment of mex-5 containing the TZF domain (amino acids 236-350) was amplified from a commercially available ORFeome clone (Open Biosystems) and sub-cloned into the vector pMal-c (NEB), which encodes maltose binding protein as an N-terminal fusion. This construct is termed pMal-MEX-5 (236-350).
MEX-5 is expressed in Escherchia. coli JM109 liquid cultures grown at 37° C. Cultures were induced during mid log phase by the addition of 0.1 mM isopropyl 1-thio-β-D-galactopyranoside (IPTG) and allowed to grow for three hours. An amount of 100 μM zinc acetate (final concentration) was added at the time of induction. The pelleted cells were resuspended in lysis buffer (50 mM Tris pH 8.8, 200 mM NaCl, 2 mM DTT, EDTA free protease inhibitor tablet (Roche), 100 μM Zn(OAc)2) and lysed by sonication. The soluble protein was purified in three steps using standard chromatography methods: (1) amylose affinity (NEB), (2) Hi-TRAP-Q (GE Healthcare), and (3) Hi-TRAP-S (GE Healthcare). The Q buffer was composed of 50 mM Tris, pH 8.8, 20 mM-1500 mM NaCl, 2 mM DTT, and 100 μM Zn(OAc)2. The S buffer was composed of 50 mM MOPS, pH 6.0, 20 mM-1500 mM NaCl, 2 mM DTT, 100 μM Zn(OAc)2. The pure fractions, determined by coomassie-stained SDS-PAGE, were dialyzed into storage buffer (20 mM Tris, pH 8.0, 25 mM NaCl, 100 μM Zn(OAc)2, 2 mM DTT). The protein concentration was determined by measuring absorbance at 280 nm and the calculated extinction coefficient. The protein was stored at 50 μM concentration at 4° C.
All RNA oligonucleotides were chemically synthesized by Dharmacon or Integrated DNA Technologies. Upon arrival, each RNA was deprotected and stored according to the manufacturer's instructions. Prior to use, the RNA was resuspended in 10 mM Tris-HCl, pH 8.0, 0.1 mM EDTA, and the concentration determined by UV spectrophotometry using the calculated extinction coefficient at 260 nm based on the specific sequence. The sequence of the MEX-5 binding RNA (TCR2) is […] (SEQ ID NO:1). The POS-1 binding RNA (BMF018) is […] (SEQ ID NO:2). The MEX-3 binding RNA (SEQ 14) is […] (SEQ ID NO:3).
The RNA used for the small molecule screen was labeled at the 3′-end with fluorescein by Dharmacon during synthesis. In a few cases, follow up experiments were performed with post-synthetically labeled RNA. In this case, fluorescein 5-thiosemicarbazide (FTSC, Invitrogen) was used to 3′-end label each RNA after treatment with sodium periodate (see Reines, S. A. and Cantor, C. R. (1974) “New fluorescent hydrazide reagents for the oxidized 3′-terminus of RNA” Nucleic Acids Res. 1, 767-786). A representative 50 μl reaction consisted of 0.5 nanomoles RNA, 100 mM NaOAc, pH 5.1, and 5 nanomoles NaIO4. After the reaction was complete (90 minutes at room temperature), the sample was ethanol precipitated by adding 1 μl RNase free glycogen (Invitrogen 20 μg/μl), 1/20th volume of 5 M NaCl, and 2 volumes of 100% ice-cold ethanol. The resulting pellet was resuspended in 50 μl of 100 mM NaOAc, pH 5.1 containing 1 mM FTSC and was allowed to react overnight at 4° C. in the dark. The unreacted label was removed by ethanol precipitation with resuspension of the pellet in a small volume of TE, and purification over a Roche G-25 size exclusion spin column. The labeling efficiency is determined by calculating the ratio of fluorescein absorbance at 490 nm to RNA-fluorescein absorbance at 260 nm. Typical efficiencies are 60-80%.
The ability of MEX-5 to associate with RNA was monitored by fluorescence polarization using a victor V3 or victor V2V plate reader (Perkin Elmer) in 384-well FluoTrak microplates (Grenier). […]
For the compound `O=C(Nc1nnc[nH]1)c1ccccc1O` [AI], the remaining activity at 192 µM came out at 9.13%.

Regarding `O=c1cc(-c2ccccc2)c2ccc(O)c(O)c2o1` [I], the remaining activity at 192 µM was -0.142%.

Take `O=C(O)c1cc(NC(=O)c2cccc(N3C(=O)CCC3=O)c2)cc(C(=O)O)c1` [AH]: the remaining activity at 192 µM turned out to be 8.76%.

For `O=C(O)c1ccccc1NC(=S)NC(=O)c1sc2ccccc2c1Cl` [BP], the remaining activity at 192 µM was 19.2%.

In the case of `CCOC(=O)c1ccccc1OC(=O)c1ccc2c(c1)C1C=CCC1C(C(=O)O)N2` (stereo not drawn) [B], the remaining activity at 192 µM is -3.69%.
